# Data taken from patent US9207243B2, “Use of GLUT4 inhibitors and DNA damaging agents for treating multiple myeloma” (Northwestern University, priority 2011, dated 2015).
# Columns and labels:
# [1] = cited from earlier work
# [2] = test system: MM.1S cells; assay: Glucose consumption of MM.1S cells treated with 8-NH2-Ado; type: cell-based, human; conditions: 3 μM 8-NH2-Ado, within the first five hours of treatment
# Experimental: (§1) (A) Measurement of glucose consumed by MM.1S cells treated with 3 μM 8-NH2-Ado for 5 hours. Data are means±SEM (n=3). (B) MM.1S cells were treated for the indicated number of hours with 3 μM 8-NH2-Ado or not (C) prior to lysis and immunoblot analysis of GLUT1 and GLUT4 expression. (C) Immunostaining of GLUT1 and GLUT4 in MM.1S cells treated with 3 μM 8 NH2-Ado for 5 hours. Arrow indicates intracellular aggregation of GLUT4.
# Our laboratory has worked extensively on defining the mechanism of action of purine analogues 8-amino-adenosine (8-NH2-Ado) and 8-chloro-adenosine (Gandhi, Ayres et al. 2001; Krett, Davies et al. 2004; Ghias, Ma et al. 2005). In our recent publication (Shanmugam, McBrayer et al. 2009) we report that 8-NH2-Ado targets cellular metabolism by inducing a rapid decline in glucose consumption, the magnitude of which correlates with toxicity in various myeloma cell lines.
# To explore mechanisms underlying the decrease in glucose consumption elicited by 8-NH2-Ado in the MM.1S cell line, we examined the regulation of glucose transporters that regulate the primary rate limiting step in glycolysis (Rodriguez-Enriquez, Marin-Hernandez et al. 2009). […] Since the activity of these proteins depends upon insertion into the plasma membrane, we next evaluated subcellular distribution by immunofluorescence confocal microscopy (FIG. 1C). […]
# [3] = test system: GLUT4; assay: Immunostaining / confocal microscopy of GLUT4 subcellular localization in MM.1S cells; type: cell-based, human; conditions: 3 μM 8-NH2-Ado, 5 hours, aggregation of GLUT4 within the trans-golgi network
# Experimental: as §1
# To explore mechanisms underlying the decrease in glucose consumption elicited by 8-NH2-Ado in the MM.1S cell line, we examined the regulation of glucose transporters that regulate the primary rate limiting step in glycolysis (Rodriguez-Enriquez, Marin-Hernandez et al. 2009). We examined expression and subcellular localization of GLUT1 and GLUT4, two highly expressed glucose transporters in B lymphocytes. Despite a 40% decline in glucose consumption rates within the first five hours of treatment (FIG. 1A), no substantial changes in GLUT1 or GLUT4 expression levels are observed at this time (FIG. 1B). The expression of both GLUT1 and 4 are diminished by 24 hours, potentially contributing to the further decline in glucose transport rates seen between 5 and 17 hours. Since the activity of these proteins depends upon insertion into the plasma membrane, we next evaluated subcellular distribution by immunofluorescence confocal microscopy (FIG. 1C). […]
# [4] = test system: U266 myeloma cells; assay: Doxorubicin cell death in U266 cells in 11 or 0.5 mM glucose medium (flow cytometry, DAPI staining); type: cell-based, human; conditions: 0.5 mM vs 11 mM glucose medium, 48 hours
# Experimental: (A) Primary normal B lymphocytes and CD138+ cells isolated from an MM patient and L363 cells were cultured in medium containing 0 or 5 mM glucose for 48 (NBL, L363) or 72 (MM Patient) hours. Cell viability was determined by flow cytometric analysis of AnnexinV/DAPI staining and normalized to 5 mM samples. Data are means±SEM (n=2). (B) Indicated cells were cultured as in (A) with various concentrations of glucose for 72 hours. Viable cell quantities were determined by MTS assay and normalized to 5 mM samples. Data are means±SEM. (C) U266 myeloma cells were cultured in 11 or 0.5 mM glucose-containing medium for 48 hours in the presence of the indicated concentrations of doxorubicin. Cell death was determined by flow cytometric analysis of DAPI staining. Data are means±SEM. *p<0.05 **p<0.01.
# Glucose Deprivation Attenuates Proliferation, Viability and Chemoresistance of Myeloma Cells. To independently ascertain the contribution of glucose in maintaining myeloma cell proliferation and survival we cultured L363 myeloma cells, normal B lymphocytes (NBL), and primary MM cells in medium containing either a physiological glucose concentration (5 mM) or medium devoid of glucose and assessed the impact on cellular viability (FIG. 2 A). Under these conditions, greater than 95% of L363 cells and 50% of the primary MM cells undergo apoptosis while the viability of normal cells is not impacted. […]
# [5] = target: T1, GLUT4 (Rattus norvegicus, UniProt P19357); conditions: primary rat adipocytes (Murata, Hruz et al.); read-out: Ki, reversible non-competitive GLUT4 inhibition; cited from earlier work
# T1 construct: host or cells: primary rat adipocytes
# T1 sequence (P19357 1-509): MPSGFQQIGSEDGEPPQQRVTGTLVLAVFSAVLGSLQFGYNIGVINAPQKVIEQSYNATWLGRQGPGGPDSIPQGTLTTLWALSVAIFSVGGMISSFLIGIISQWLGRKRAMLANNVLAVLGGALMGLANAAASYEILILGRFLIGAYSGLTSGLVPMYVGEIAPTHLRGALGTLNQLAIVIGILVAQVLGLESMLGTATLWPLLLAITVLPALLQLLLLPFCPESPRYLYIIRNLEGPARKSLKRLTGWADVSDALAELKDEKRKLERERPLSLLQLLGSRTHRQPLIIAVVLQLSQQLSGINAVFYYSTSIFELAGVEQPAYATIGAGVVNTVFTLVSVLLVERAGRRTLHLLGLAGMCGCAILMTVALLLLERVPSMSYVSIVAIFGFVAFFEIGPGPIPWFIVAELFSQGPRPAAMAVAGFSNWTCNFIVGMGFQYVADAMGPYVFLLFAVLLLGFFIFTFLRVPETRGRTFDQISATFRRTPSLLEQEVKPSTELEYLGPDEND
# [6] = epirubicin plus lonidamine vs epirubicin alone; did not reach statistical significance; cited from earlier work
# [7] = test system: KMS11 cells; assay: Ritonavir with or without doxorubicin, viability by AnnexinV/DAPI staining, KMS11; type: cell-based, human; conditions: KMS11, 20 μM ritonavir with 0.075 μM doxorubicin, 72 hrs
# Experimental: (§2) (A) KMS11 and (B) L363 cells were plated in 5 mM glucose medium with ritonavir or DMSO (D) for 17 hours. Glucose consumption rates are normalized to untreated cells (not shown). (C) KMS11 and (D) L363 cells were treated with ritonavir or DMSO for 12 hours. Relative viable cell numbers were determined by MTS assay and normalized to untreated cells (not shown). (E) KMS11 and (F) L363 cells were treated with 20 μM ritonavir with or without 0.075 (KMS11) and 0.025 μM (L363) doxorubicin or the combination for 72 hrs and cellular viability assessed by AnnexinV/DAPI staining. (G) Stable KMS11 cell lines were generated expressing empty vector or GLUT1 and GLUT1 levels were assessed by immunoblot. Representative blot is shown. N.S. indicates non-specific band. (H) Stable cell lines from part G were treated with DMSO or ritonavir (Rit) for 5 hours and glucose consumption was assessed. (1) Cell proliferation was measured in the stable cell lines described in part G treated with ritonavir (Rit) or DMSO for 72 hours. A representative experiment is shown. (J) Cell proliferation rates from multiple experiments represented by part G are normalized to DMSO-treated cells. (K) Primary myeloma cells were treated with DMSO or ritonavir for 72 hours before AnnexinV/DAPI staining. Values are normalized to DMSO-treated samples (n=1 for each patient sample). Data are means±SEM with n≧3. *P<0.05 **P<0.01 ***P<0.005.
# [8] = test system: L363 cells; assay: Ritonavir with or without doxorubicin, viability by AnnexinV/DAPI staining, L363; type: cell-based, human; conditions: L363, 20 μM ritonavir with 0.025 μM doxorubicin, 72 hrs
# Experimental: as §2
# [9] = test system: primary myeloma cells; assay: Cytotoxicity of ritonavir towards primary myeloma cells (AnnexinV/DAPI staining); type: cell-based, human; conditions: 20 μM ritonavir, 72 hours
# Experimental: as §2
# [10] = test system: L363 cells; assay: Relative viable cell number by MTS assay with ritonavir, L363; type: cell-based, human
# Experimental: as §2
# [11] = test system: KMS11 cells; assay: Relative viable cell number by MTS assay with ritonavir, KMS11; type: cell-based, human
# Experimental: as §2
# [12] = test system: KMS11 cells; assay: Glucose consumption rate with ritonavir, KMS11; type: cell-based, human; conditions: KMS11, 5 mM glucose medium, 17 hours
# Experimental: as §2
# [13] = humans (Hsu, Granneman et al. 1997); cited from earlier work
# [14] = test system: KMS11 stable cell lines expressing GLUT1; assay: Glucose consumption in stable KMS11 cell lines expressing GLUT1 or control, treated with ritonavir; type: cell-based, human; conditions: KMS11 stable line expressing GLUT1, 5 hours
# Experimental: as §2
# [15] = test system: L363 cells; assay: Glucose consumption rate with ritonavir, L363; type: cell-based, human; conditions: L363, 5 mM glucose medium, 17 hours
# Experimental: as §2
# [16] = test system: KMS11 stable cell lines expressing GLUT1; assay: Cell proliferation in stable KMS11 cell lines expressing GLUT1 or control, treated with ritonavir; type: cell-based, human; conditions: KMS11 stable line expressing GLUT1, 72 hours
# Experimental: as §2
# [17] = 2DG and docetaxel, evaluable pool of 18 patients
smiles,measurement,setting,value
O=CC[C@@H](O)[C@H](O)[C@H](O)CO [2DG],adverse event noted in multiple patients,[1]; 2DG and docetaxel phase I trial,Grade 3 hyperglycemia
same,cases of disease stabilization,[1]; [17],six
same,partial response,[1]; [17],one
"Nc1ncnc2c1nc(N)n2[C@@H]1O[C@H](CO)[C@@H](O)[C@H]1O [8-NH2-Ado, 8-amino-adenosine]",decline in glucose consumption rates,[2],40%
same,basal cell surface localization of GLUT4,[3],reduces this basal cell surface localization of GLUT4
COc1cccc2c1C(=O)c1c(O)c3c(c(O)c1C2=O)C[C@@](O)(C(=O)CO)C[C@@H]3O[C@H]1C[C@H](N)[C@H](O)[C@H](C)O1 [doxorubicin],sensitivity to doxorubicin under glucose-limiting conditions,[4],significantly greater sensitivity
CC(C)(C)NC(=O)[C@@H]1CN(Cc2cccnc2)CCN1C[C@@H](O)C[C@@H](Cc1ccccc1)C(=O)N[C@H]1c2ccccc2C[C@H]1O [indinavir],Ki,[5],15 µM
O=C(O)c1nn(Cc2ccc(Cl)cc2Cl)c2ccccc12 [lonidamine],increase in overall response rate,[6],9%
CC(C)c1nc(CN(C)C(=O)N[C@H](C(=O)N[C@@H](Cc2ccccc2)C[C@H](O)[C@H](Cc2ccccc2)NC(=O)OCc2cncs2)C(C)C)cs1 [ritonavir],sensitization to doxorubicin,[7],recapitulates the doxorubicin-sensitizing effects of glucose limitation
same,sensitization to doxorubicin,[8],recapitulates the doxorubicin-sensitizing effects of glucose limitation
same,cell death induction in patient samples,[9],a range of cell death induction
same,"proliferation (relative viable cell numbers, MTS)",[10],dose-dependent abrogation
same,"proliferation (relative viable cell numbers, MTS)",[11],dose-dependent abrogation
same,glucose transport (glucose consumption rate),[12],dose-dependent abrogation
same,peak plasma level routinely achieved in humans,[13],~20 µM
same,effect of GLUT1 expression on ritonavir-induced glucose transport inhibition,[14],completely mitigated
same,glucose transport (glucose consumption rate),[15],dose-dependent abrogation
same,effect of GLUT1 expression on response to prolonged ritonavir treatment (proliferation),[16],robust resistance
